The values below are quoted from earlier work in patent US9539278B2, “Preparation for use of aspartate and vitamin B12 or biotin for regulating ketone bodies” (N.V. Nutricia, priority 2004, dated 2017).

The series concerns blood ketone body concentrations. The note with it: rats, after consumption of high doses of alanine.

Regarding `C[C@H](N)C(=O)O` [alanine], the “blood levels of ketone bodies” value is on record as “decreased”.
